According to ChEMBL document CHEMBL1124496, “Darmstoff analogues. 3. Actions of choline esters of acetal phosphatidic acids on visceral smooth muscle” (1989):

Organism: Cavia porcellus
Test: Effective dose for relaxation of guinea pig taenia coli strips
Format: functional

Compound | ED60
CCCCC/C=C/C/C=C/CCCCCCCC1OCC(COP(=O)([O-])OCC[N+](C)(C)C)O1 (stereo not drawn) | 50 µM
CCCCCCCCCCCCCCCC1OCC(COP(=O)([O-])OCC[N+](C)(C)C)O1 (stereo not drawn) | 57 µM
CCCCCCCC/C=C/CCCCCCCC1OCC(COP(=O)([O-])OCC[N+](C)(C)C)O1 (cis isomer) | 200 µM
